The results in this text go back to ChEMBL document CHEMBL3507680, “University of Dundee, Gates Library screen for HepG2 cell viability”.

This data set is described as follows: Human HepG2 cell viability assay in 384 well format. It is filed as toxicity, cell-based. Also on record: dose 125 nL, time 70.5 hour; concentration not given beside the values. The conditions noted are these: HepG2 cells, read-out: Inhibition.
With `O=C(Cc1cn2ccsc2n1)N(Cc1ccco1)CC1CCCO1` (stereo not drawn), the cytotoxicity at 70.5 h is 7.91%. To `COC(C)(C)CC(C)NC(=O)NC1CCN(Cc2ccccn2)CC1` (stereo not drawn) belongs -0.855%; to `Cc1ccc(NC(=O)N(C)CC(O)COCCOC(C)C)c(Br)c1` (stereo not drawn), -4.27%; to `O=C(NCc1cc[nH]n1)N1CCC(Oc2ccccc2Cl)CC1`, 8.97%. On to `Cc1csc(C2(NCC(O)COc3ccc(F)cc3)CCC2)n1` (stereo not drawn), for which the cytotoxicity at 70.5 h is -0.482%.

In the case of `COCC1CN(C(=O)Nc2cc(-n3cccc3)ccc2F)CCO1` (stereo not drawn), the cytotoxicity at 70.5 h worked out at 7.34%.

`COc1ccccc1CN(C)c1nc2c(cnn2C)c(=O)[nH]1`: the cytotoxicity at 70.5 h is -10.3%.

Turning to `COc1ccc(CN(C)c2nc3c(cnn3C)c(=O)[nH]2)c(OC)c1`, the cytotoxicity at 70.5 h is 18.3%. As for `CS(=O)(=O)c1nnc(NC(=O)CCc2ccc(Cl)s2)[nH]1`, the cytotoxicity at 70.5 h was -10.2%.

For `COc1ccc(OC)c(CN(C)c2nc3c(cnn3C)c(=O)[nH]2)c1`, the cytotoxicity at 70.5 h came out at 42.4%. Take `CC(C)N(C)CCNC(=O)NCc1ccccc1-n1cccn1`: the cytotoxicity at 70.5 h is -7.41%. For `Cc1ccc(C)c(OCc2nnc(SCC3CCCN(C)C3)o2)c1` (stereo not drawn), the cytotoxicity at 70.5 h is -5.12%. To `Cc1ccc(OCC(=O)N(C)Cc2cccc(F)c2)cn1` belongs -3.84%; to `COc1ccc(Br)cc1CN(C)c1nc2c(cnn2C)c(=O)[nH]1`, -10.6%; to `O=C(Cc1ccc(Cl)cc1)N1CCC(O)(C(F)(F)F)C1` (stereo not drawn), -2.11%. For `CN(CCn1cccn1)c1cc(C(F)(F)F)nc(-c2cccnc2)n1` the value was -4.93%.

For the compound `Cn1c(SCC2OCCc3ccccc32)n[nH]c1=O` (stereo not drawn), the cytotoxicity at 70.5 h was -8.09%.

For `O=C(N1CCC(O)(C(F)(F)F)C1)C1(c2cccc(Cl)c2)CC1` (stereo not drawn), the cytotoxicity at 70.5 h was -9.29%.

Take `O=C(CCc1ccc(Cl)cc1)N1CCC(O)(C(F)(F)F)C1` (stereo not drawn): the cytotoxicity at 70.5 h was -6.2%. For `Cn1cccc(NC(=O)N2CCC(Cc3ccccc3)C2)c1=O` (stereo not drawn), the cytotoxicity at 70.5 h is 19.7%. For `CCCn1nc(-c2nc(C3CC3)no2)ccc1=O` the value was 5.03%; for `Cc1csc(C2(NCc3ccc(OCC(F)F)cc3)CCCC2)n1`, -5.7%. In the case of `FC(F)(F)c1cc(NCCn2ncnn2)nc(-c2cccnc2)n1`, the cytotoxicity at 70.5 h was -9.6%. For `O=S(=O)(Cc1ccc(F)c(Cl)c1)NC(CO)c1ccco1` (stereo not drawn) the value was -11%. Take `Cc1ccc(-c2nc(CNc3ccc(C(N)=O)c(C)c3)cs2)o1`: the cytotoxicity at 70.5 h was -8.76%. With `CC(C)(CCS(C)(=O)=O)CNc1ccc2ccc(F)cc2n1`, the cytotoxicity at 70.5 h was -2.27%. For `CCC(C(=O)N1CCCSCC1)N1CCCC1=O` (stereo not drawn) the value was 12.1%.

On to `Cn1cccc(NC(=O)N2CCC(COCc3ccccc3)C2)c1=O` (stereo not drawn), for which the cytotoxicity at 70.5 h turned out to be 7.11%. As to `O=S(=O)(NCC1CCN(CCN2CCOCC2)C1)c1ccccc1F` (stereo not drawn), the cytotoxicity at 70.5 h came to 13.9%. For `Cc1ccc2c(c1)OC(C)CN2C(=O)CCc1cccnc1` (stereo not drawn) the value was 1.51%. For `Cc1ccc2c(c1)OC(C)CN2C(=O)CCc1cscn1` (stereo not drawn) the value was 0.46%. To `O=C(NCCCN1CCN(c2ncccn2)CC1)NCC1CCCO1` (stereo not drawn) belongs -3.85%.

As for `CCc1nnsc1C(=O)N(C)Cc1ccc(Br)o1`, the cytotoxicity at 70.5 h is -2.39%.

For the compound `CCc1nnsc1C(=O)N(C)Cc1ccc(C)o1`, the cytotoxicity at 70.5 h is -0.808%. For `O=C(NCCCN1CCN(c2ncccn2)CC1)NCC1CCOC1` (stereo not drawn) the value was 3.56%; for `Cc1ccc(NC(=O)CSCc2cccnc2)nc1`, -1.37%; for `CC1COCCN1C(=O)NCCCn1ccnc1` (stereo not drawn), -2.86%. For `CC(=O)N1CCCC(C(=O)N2CCN(Cc3cc(C)on3)CC2)C1` (stereo not drawn) the value was 2.35%; for `COc1ccc(CNc2c(C)nn(C(C)C)c2C)cc1`, 13.9%. In the case of `O=C(Cc1ccccc1F)NCC1CCN(CCc2ccccc2)C1` (stereo not drawn), the cytotoxicity at 70.5 h was -1.68%. To `CC(C)NC(=O)[C@@H]1C[C@H]2OCC[C@H]2N(Cc2ccc3ccccc3n2)C1` belongs 12.8%; to `Cc1cc(C(=O)N2CCn3cc(CN4CCN(C)CC4)nc3C2)no1`, -11.8%; to `Cc1cccc(C(=O)N2CCC3(CC2)CC(c2cnn(C)c2)CO3)c1` (stereo not drawn), -15%. `CNC(=O)N1CCc2nc(C(=O)NCc3cccc(OC)c3)sc2CC1`: the cytotoxicity at 70.5 h stood at 18%. On to `O=C(NC1CC1)[C@@H]1CCO[C@@H]2CCN(Cc3ccco3)C[C@H]21`, for which the cytotoxicity at 70.5 h was -13.9%.

With `CNC(=O)C1Cn2ccnc2C2(CCN(Cc3c(C)noc3C)CC2)O1` (stereo not drawn), the cytotoxicity at 70.5 h came out at 21.5%. To `Cn1cc(C2COC3(CCN(C(=O)c4cccn4C)CC3)C2)cn1` (stereo not drawn) belongs 14.2%; to `Cn1cc(C2COC3(CCN(C(=O)c4ccn(C)n4)CC3)C2)cn1` (stereo not drawn), -14.5%; to `CS(=O)(=O)N[C@@H]1CCO[C@]2(CCN(C(=O)c3cscn3)C2)C1`, -7.64%. As for `Cc1ccc(C(=O)N2C[C@@H]3OCCN(CC4CCCC4)[C@@H]3C2)cn1`, the cytotoxicity at 70.5 h is -6.94%. In the case of `O=C(Nc1cccnc1)[C@H]1C[C@@H]2CN(Cc3ccc(F)cc3)C[C@H]1O2`, the cytotoxicity at 70.5 h was -7.11%. For `Cc1ccc(CN2C[C@H]3C[C@H](C(=O)Nc4cccnc4)[C@@H](C2)O3)cc1` the value was 2.68%; for `O=C(c1cccnc1)N1C[C@@H]2OCCN(CCN3CCCC3)[C@@H]2C1`, -10%. For `CCN1Cc2c(C(=O)NC(C)C(C)C)ncn2-c2ccccc2S1(=O)=O` (stereo not drawn), the cytotoxicity at 70.5 h turned out to be 6.35%.

As to `CN1CCN(Cc2cnc3n2CCN(C(=O)c2ccncc2)C3)CC1`, the cytotoxicity at 70.5 h was -10.3%. To `CCCS(=O)(=O)N1CC[C@H]2O[C@H](c3nnc(C)o3)CC[C@H]21` belongs 11.3%; to `CCS(=O)(=O)N1CC[C@H]2O[C@H](c3nnc(C)o3)CC[C@H]21`, -13.4%; to `CNC(=O)c1ncn2c1CN(CCC(C)C)S(=O)(=O)c1ccccc1-2`, -9.5%.

`CN1CCN(Cc2cnc3n2CCN(C(=O)c2ccccn2)C3)CC1`: the cytotoxicity at 70.5 h was -12.3%. For `COCC(=O)N1CC[C@@H]2O[C@H](COCc3csc(C)n3)CC[C@@H]21` the value was -4.59%; for `CN1CCN(Cc2cnc3n2CCN(C(=O)c2ccoc2)C3)CC1`, -7.31%; for `CN1CCN(Cc2cnc3n2CCN(C(=O)c2ccnnc2)C3)CC1`, -14.6%.

Regarding `CN1CCN(Cc2cnc3n2CCN(C(=O)c2cnccn2)C3)CC1`, the cytotoxicity at 70.5 h was -4.26%. For `CCS(=O)(=O)N1CC[C@H]2O[C@@H](c3nnc(C)o3)CC[C@H]21` the value was -8.41%; for `CCOCC1CN(S(=O)(=O)C2CC2)Cc2cnn(C)c21` (stereo not drawn), 20%; for `Cc1ccc(C(=O)N2CC[C@@]3(O)CCN(C(=O)N(C)C)C[C@H]3C2)cc1Cl`, -8.07%. To `Cc1cccc(C(=O)N2CC[C@]3(C[C@H](OCc4ccccn4)CO3)C2)c1` belongs 11.1%. With `c1cnc(NC2COC3(CCN(Cc4nccs4)CC3)C2)cn1` (stereo not drawn), the cytotoxicity at 70.5 h is -8.19%.

In the case of `O=C(Cc1cccs1)N1CCn2cc(Cn3cccn3)nc2C1`, the cytotoxicity at 70.5 h was -13.4%. For `O=C(c1ccncc1F)N1CC[C@@H]2CN(c3ncccn3)CCO[C@@H]2C1` the value was -11.2%. As for `O=C(c1ccccc1)N1CCC[C@]2(C[C@@H](OCc3ccccn3)CO2)C1`, the cytotoxicity at 70.5 h was -13.1%. On to `Cn1nccc1C(=O)N1CC[C@]2(C[C@H](OCc3ccccn3)CO2)C1`, for which the cytotoxicity at 70.5 h is -11.1%. To `Cc1ccc(C(=O)N2CCC3(CC2)CC(c2cnn(C)c2)CO3)cn1` (stereo not drawn) belongs -10.6%. To `O=C([C@H]1C[C@H]2OCC[C@H]2N(Cc2ccc(F)cc2)C1)N1CCCCO1` belongs 20.6%; to `CNC(=O)N1C[C@H]2C[C@H](C(=O)Nc3cccnc3)[C@@H](C1)O2`, -2.82%.

As for `O=C([C@H]1C[C@H]2OCC[C@H]2N(CC2CC2)C1)N1CCCCO1`, the cytotoxicity at 70.5 h was -4.54%.

As for `O=C([C@H]1C[C@H]2OCC[C@H]2N(Cc2ccccn2)C1)N1CCCCO1`, the cytotoxicity at 70.5 h is -9.44%.

On to `O=C([C@H]1C[C@H]2OCC[C@H]2N(Cc2ccoc2)C1)N1CCCCO1`, for which the cytotoxicity at 70.5 h is -6.32%.

Turning to `COCCN1CC[C@@H]2O[C@H](COCc3csc(C)n3)CC[C@@H]21`, the cytotoxicity at 70.5 h was -15.2%. On to `CC1=N[C@@]2(CC[C@@H]3CN(CC4CC4)C[C@@H]32)C(=O)N1CC(C)C`, for which the cytotoxicity at 70.5 h was -15.3%. To `Cc1noc([C@@H]2C[C@H]3CN(C(=O)C4CCN(C)CC4)C[C@H]3O2)n1` belongs -11.3%; to `O=S(=O)(c1cccs1)N1CC[C@@H](O)[C@@H]1Cc1ccncc1`, 18%; to `OCCOCc1ncn2c1CN(Cc1cccs1)CCC2`, 0.851%. `O=C(NCc1ccco1)[C@H]1COC[C@H]2CN(Cc3ccccn3)C[C@H]21`: the cytotoxicity at 70.5 h is -8.72%. `CN1CCN(C2COC3(CCN(Cc4ccsc4)CC3)C2)CC1` (stereo not drawn): the cytotoxicity at 70.5 h is -8.09%. To `O=C([C@H]1C[C@H]2OCC[C@H]2N(Cc2cccnc2)C1)N1CCCCO1` belongs -7.65%; to `Cn1cc(C[C@H]2[C@H](O)CCN2Cc2ccncc2)cn1`, -5.7%; to `Cc1ncsc1CN1Cc2cn(C)nc2C(COCC2CC2)C1` (stereo not drawn), 11.6%. For the compound `CO[C@@H]1CCN(Cc2nccn2C)[C@H]1Cc1cccnc1`, the cytotoxicity at 70.5 h was found to be 12.4%. For `Cn1cc(CN2CCCC3(CCN(C(=O)c4cnccn4)C3)C2)cn1` (stereo not drawn) the value was 11.1%; for `O=C(Cc1ccccn1)N1CCN2C[C@H](OCCN3CCCC3)C[C@H]2C1`, 19.7%; for `Cc1ccc(CN2CCC3(CC2)CC(N2CCN(C)CC2)CO3)s1` (stereo not drawn), -9.14%. For `COCC1CN(Cc2ccccn2)Cc2cn(C)nc21` (stereo not drawn) the value was -4.86%.
